Source: PMC6353801, “Enhanced Anti-diabetic Effect of Berberine Combined With Timosaponin B2 in Goto-Kakizaki Rats, Associated With Increased Variety and Exposure of Effective Substances Through Intestinal Absorption” (Frontiers in Pharmacology, 2019)
Read-outs that look alike come from different tables or passages of the source.

Experiments:
in vivo [1] = details: male, Wistar, rat, po
[2] = male, Wistar, rat, in vivo
GK rats [3] = assay: Oral glucose tolerance test (OGTT) in GK rats on day 28; format: in vivo, rat; details: after 4 weeks of treatment, glucose 2 g/kg oral
Procedure: (§1) Four-week-old male GK rats were fed a high-fat diet, and age-matched non-diabetic Wistar rats were fed standard chow as the control group. Under these dietary conditions, blood glucose was estimated each week for 7 weeks in 12-h fasted rats using a portable glucometer (One Touch Sure Step Meter, Johnson & Johnson, United States) by drawing the blood from the tail vein. GK rats with fasting blood glucose levels (FBG) above 16.7 mM were considered as diabetic rats, and only uniformly diabetic rats were used in this study. […] All the drugs were suspended in 0.5% carboxymethylcellulose sodium (CMC-Na) solution for oral gavage (10 ml/kg) once per day (at 9:00) for 6 weeks. Simultaneously, the Wistar and vehicle groups received vehicle over the treatment period. Food consumption and body weight were measured every week throughout the experimental periods. Non-fasting blood glucose (NFBG) levels were determined by collecting blood samples from the tail vein (at 9:00), and FBG levels were determined after a 6-h fast (at 15:00) on days 0, 7, 14, 21, and 42. On day 28, an oral glucose tolerance test (OGTT) was performed after an overnight fast. […] On day 42, the rats were anesthetized with urethane (1.4 g/kg, dissolved in saline) after an overnight fast and were sacrificed to collect the liver, kidney, heart, and spleen. The organs were weighed after washing with saline and drying to calculate the organ coefficient, namely, the ratio between the weight of organs and the body in each rat.

[4] = Body weight, food intake, organ coefficients and side effects in GK rats; format: in vivo, rat
Procedure: as §1

primary rat hepatocytes = assay: Hepatic metabolism in primary hepatocytes; details: BBR 1 μM, 3 h, ABT 1 mM, TB-2 0.1 to 30 μM
in vivo [5] = details: male, Wistar, rat, po; remark: listed apart in the source
[6] = Transport in Caco-2 cells; format: in vitro ADME, human; details: human; for efflux ratio at 120 min: Caco-2, Caco-2, no inhibitor, Papp (BL−AP)/Papp (AP−BL); for Papp A→B at 120 min / Papp B→A at 120 min: Caco-2, no inhibitor, digoxin 10 μM, TB-2 5 μM, BBR 10 μM
Procedure: (§2) The culture medium was changed every other day for the first 7 days and then daily for the next 14 days. […] Prior to the transport experiments, the cell monolayers were washed three times with HBSS at 37°C. […] At the same time, the corresponding opposite side was filled with medium as the receiving chamber. After incubation for 30, 60, 90, and 120 min, 250-μl aliquots of the medium was taken from the receiving chamber at each time point, and prepared for analysis by HPLC–MS/MS. […] where (ΔQ/Δt) is the linear slope of the drug concentration in the receptor chamber over time, A represents the surface area of the membrane (1.12 cm^2), and C0 is the initial concentration of drug in the donor chamber. The efflux ratio (ERpermeability) for BL to AP and AP to BL transport was defined by the following equation: […] where Papp (BL–AP) and Papp (AP–BL) are the apparent permeability of drugs from the basolateral (BL) to apical (AP) and AP to BL sides of the monolayer, respectively.

[7] = male, Wistar, rat, in vivo; remark: listed apart in the source
[8] = PK in systemic plasma of GK rats after repeated oral administration (day 35); format: in vivo, rat; details: rat, in vivo
Procedure: Analyses were performed on a Shimadzu LCMS-8030 triple quadrupole system (Shimadzu Corp., Japan) equipped with an electrospray ionization source. Data processing was performed using Shimadzu LC–MS LabSolutions (version 5.42 SP4, Shimadzu, Japan). Chromatographic separation was carried out on a Waters CORTECS C18+ column (100 mm × 2.1 mm, 2.7 μm, Ireland) with a security guard C18+ column (5 mm × 2.1 mm, 2.7 μm, Ireland). […] The gradient elution was 85% B from 0 to 2.5 min, 85% B–83% B from 2.5 to 3.0 min, 83% B from 3.0 to 6.0 min, 83% B–40% B from 6.0 to 6.5 min, 40% B from 6.5 to 7.0 min, 40% B–85% B from 7.0 to 7.2 min, and 85% B from 7.2 to 12 min. […] The optimized precursor-to-product ion pairs (collision energy) were in the positive mode as follows: m/z 579.20–255.15 (28 V) for TB-2 (at 4.1 min) and timosaponin A3 (at 6.1 min) and 271.50–154.70 (25 V) for tolbutamide (IS, at 5.8 min). […] If the concentrations of the compounds were over the linear range, the relevant samples were diluted with blank matrix by a factor of 10. […] Four-week-old male GK rats were fed a high-fat diet, and age-matched non-diabetic Wistar rats were fed standard chow as the control group. Under these dietary conditions, blood glucose was estimated each week for 7 weeks in 12-h fasted rats using a portable glucometer (One Touch Sure Step Meter, Johnson & Johnson, United States) by drawing the blood from the tail vein. GK rats with fasting blood glucose levels (FBG) above 16.7 mM were considered as diabetic rats, and only uniformly diabetic rats were used in this study. […] All the drugs were suspended in 0.5% carboxymethylcellulose sodium (CMC-Na) solution for oral gavage (10 ml/kg) once per day (at 9:00) for 6 weeks. Simultaneously, the Wistar and vehicle groups received vehicle over the treatment period. Food consumption and body weight were measured every week throughout the experimental periods. Non-fasting blood glucose (NFBG) levels were determined by collecting blood samples from the tail vein (at 9:00), and FBG levels were determined after a 6-h fast (at 15:00) on days 0, 7, 14, 21, and 42. On day 28, an oral glucose tolerance test (OGTT) was performed after an overnight fast. […] On day 42, the rats were anesthetized with urethane (1.4 g/kg, dissolved in saline) after an overnight fast and were sacrificed to collect the liver, kidney, heart, and spleen. The organs were weighed after washing with saline and drying to calculate the organ coefficient, namely, the ratio between the weight of organs and the body in each rat. The liver samples were diluted with 3 volumes (0.5 g/1.5 ml) of saline and homogenized. The liver homogenates and plasma samples (100 μl) were precipitated with three volumes of acetonitrile (containing 10 μg/ml tolbutamide). […] Then, 100 μl of the original mobile phase was added, and the samples were vortexed for 5 min and centrifuged at 13,000 rpm at 4°C for 10 min. Finally, the supernatant was used for HPLC–QQQ–MS/MS analysis. A non-compartmental analysis was performed using WinNonlin software (Pharsight 6.2, Raleigh, NC, United States) to calculate the PK parameters. The significance of PK parameters in normal rats, generated by the sparse method in WinNonlin, was assessed with Welch’s unequal variances t-test. The significance of the other results was assessed using two-tailed Student’s t-tests. Statistical significance was defined as P < 0.05.

GK rats [9] = assay: NFBG and FBG levels in GK rats, 6-week oral treatment; format: in vivo, rat; details: during 6-week treatment, TB-2 33.3, BBR 66.7, TB-2+BBR 100, metformin 200 mg/kg/day
Procedure: as §1

[10] = ref Cai et al., 2008; cited from earlier work
Caco-2 cells = assay: Transport in Caco-2 cells; format: in vitro ADME, human; details: Caco-2, no inhibitor; Papp (BL−AP)/Papp (AP−BL)
Procedure: as §2

[11] = read-out: ERpermeability (efflux ratio)
[12] = with BBR 10 μM (co-incubated), Caco-2, TB-2 5 μM in presence of BBR (10 μM), n = 3

**Q.** Which Tmax (in vivo [1]; 33.3 mg/kg) does the source give for `CC(CCC1(O)OC2CC3C4CCC5CC(OC6OC(CO)C(O)C(O)C6OC6OC(CO)C(O)C(O)C6O)CCC5(C)C4CCC3(C)C2C1C)COC1OC(CO)C(O)C(O)C1O` (stereo not shown) [TB-2, timosaponin B2] here?
**A.** 1 h

**Q.** What about the Tmax (in vivo [1]; 100 mg/kg) of the same compound?
**A.** 2 h

**Q.** What about the half-life (in vivo [1]; 100 mg/kg) of the same compound?
**A.** 22.8 h

**Q.** What about the “improvement of levels on co-administration” value [2] of the same compound?
**A.** 141–230%

**Q.** And the “decrease in the AUC of blood glucose in OGTT vs vehicle” value (GK rats [3])?
**A.** didn’t significantly decrease

**Q.** And the “effect on body weight or food consumption vs vehicle” value ([4]; 6-week oral treatment)?
**A.** no effect

**Q.** What about the “effect on organ coefficients (liver and kidney) vs vehicle” value ([4]; day 42) of the same compound?
**A.** limited

**Q.** What about the “effect on BBR metabolism and the generation of M2–M5” value (primary rat hepatocytes) of the same compound?
**A.** did not significantly affect

**Q.** And the Tmax (in vivo [5]; 33.3 mg/kg)?
**A.** 0.2 h

**Q.** What about the half-life (in vivo [5]; 100 mg/kg) of the same compound?
**A.** 23.2 h

**Q.** And the Tmax (in vivo [5]; 100 mg/kg)?
**A.** 2 h

**Q.** What about the efflux ratio at 120 min [6, 11] of the same compound?
**A.** 1.1

**Q.** And the efflux ratio at 120 min, 5 μM ([6]; Caco-2, with BBR 10 μM (co-incubated), Caco-2, TB-2 5 μM in presence of BBR (10 μM), read-out: ERpermeability (efflux ratio))?
**A.** 1

**Q.** And the Papp A→B at 120 min, 5 μM [6, 12]?
**A.** 0.081 ± 0.035 ×10⁻⁶ cm/s

**Q.** What about the Papp B→A at 120 min, 5 μM [6, 12] of the same compound?
**A.** 0.085 ± 0.035 ×10⁻⁶ cm/s

**Q.** What about the Papp A→B at 120 min ([6]; n = 3) of the same compound?
**A.** 0.057 ± 0.032 ×10⁻⁶ cm/s

**Q.** And the Papp B→A at 120 min ([6]; n = 3)?
**A.** 0.061 ± 0.043 ×10⁻⁶ cm/s

**Q.** And the “ERliver (liver extraction ratio)” value [7]?
**A.** 77.8%

**Q.** And the “ERliver (liver extraction ratio)” value ([7]; po, 33.3 mg/kg)?
**A.** 80.6%

**Q.** And the AUC ([8]; male, GK, po, 33.3 mg/kg)?
**A.** 100.4 ± 26.2 h ∗ ng/ml

**Q.** And the T1/2 ([8]; male, GK, po, 33.3 mg/kg)?
**A.** 8.6 ± 1.8 h

**Q.** What about the Tmax ([8]; male, GK, po, 33.3 mg/kg) of the same compound?
**A.** 1.1 ± 0.3 h

**Q.** What about the AUC ([8]; male, GK, po, 33.3 mg/kg, AUC) of the same compound?
**A.** 77.5 ± 13.6 ng·h/mL

**Q.** And the half-life ([8]; male, GK, po, 33.3 mg/kg, T1/2)?
**A.** 14.3 ± 5.3 h

**Q.** And the Tmax ([8]; male, GK, po, 33.3 mg/kg, Tmax)?
**A.** 2.1 ± 0.6 h

**Q.** What about the “increase in AUC on combination vs single treatment” value [8] of the same compound?
**A.** no significant improvement

**Q.** And the “increase in Cmax on combination vs single treatment” value [8]?
**A.** no significant improvement

**Q.** What about the “FBG levels compared with the vehicle group (in words)” value (GK rats [9]) of the same compound?
**A.** no significant differences

**Q.** And the “NFBG levels compared with the vehicle group (in words)” value (GK rats [9])?
**A.** no significant differences

**Q.** What about the bioavailability [10] of the same compound?
**A.** 1.2%

**Q.** Which “ERpermeability (efflux ratio)” value (Caco-2 cells) does the source give for `C[C@H]1O[C@@H](O[C@H]2[C@@H](O)C[C@H](O[C@H]3[C@@H](O)C[C@H](O[C@H]4CC[C@@]5(C)[C@H](CC[C@@H]6[C@@H]5C[C@@H](O)[C@]5(C)[C@@H](C7=CC(=O)OC7)CC[C@]65O)C4)O[C@@H]3C)O[C@@H]2C)C[C@H](O)[C@@H]1O` [Digoxin, digoxin] here?
**A.** 138.8

**Q.** What about the efflux ratio at 120 min [6, 11] of the same compound?
**A.** ~130

**Q.** What about the Papp A→B at 120 min ([6]; n = 3) of the same compound?
**A.** 0.191 ± 0.02 ×10⁻⁶ cm/s

**Q.** And the Papp B→A at 120 min ([6]; n = 3)?
**A.** 26.5 ± 1.91 ×10⁻⁶ cm/s
